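Cells were grown in 96-well plates and exposed to each compound for 48 hours at five concentrations; endpoints were interpolated linearly between bracketing concentrations, or set to the highest concentration if not reached. GI50: concentration for 50% inhibition of growth. At the TGI there is no net growth.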
Legend:
Assay in all cases: NCI anticancer screen, dose series, 48 h
[1] = test system: MALME-3M melanoma
[2] = test system: HT29 colon
[3] = test system: COLO 205 colon
[4] = test system: UO-31 renal
[5] = test system: ACHN renal
[6] = test system: LOX IMVI melanoma
[7] = test system: NCI-H226 lung
[8] = test system: HCT-116 colon
[9] = test system: RPMI-8226 leukemia

`CCCCCCCCOCC(O)COC` (stereo unspecified) showed a TGI [1] greater than 100 µM, a TGI [2] greater than 100 µM and a TGI [3] greater than 100 µM. It also gave a TGI [4] greater than 100 µM, a TGI [5] greater than 100 µM and a TGI [6] greater than 100 µM. It also gave a TGI [7] greater than 100 µM, a TGI [8] greater than 100 µM and a TGI [9] greater than 100 µM.

Molecule `NC(N)=Nc1nc2cc(N)ccc2o1` has a TGI [1] greater than 100 µM, a TGI [2] greater than 100 µM and a TGI [4] greater than 100 µM. The TGI [5] was greater than 100 µM, the TGI [6] was greater than 100 µM and the TGI [7] was greater than 100 µM. The TGI [8] was greater than 100 µM.

In the case of `COc1cc(OC)c(Oc2cccc(OC)c2OC)c(OC)c1`, the TGI [2] is reported as greater than 100 µM, the TGI [3] is reported as greater than 100 µM and the TGI [4] is reported as greater than 100 µM. The TGI [5] was greater than 100 µM, the TGI [6] was greater than 100 µM and the TGI [7] was greater than 100 µM. For the same molecule, the TGI [8] was greater than 100 µM.

Work on `COc1cc2c3c(c1OC)C1(C=CC(=O)C=C1)CC3N(C(=O)OC(C)(C)C(Cl)(Cl)Cl)CC2` (stereo unspecified) yielded a TGI [1] of 27.2 µM, a TGI [2] of 24.4 µM and a TGI [3] of 29 µM. It also gave a TGI [4] of 28.5 µM, a TGI [6] of 26.1 µM and a TGI [7] of 33.1 µM. The TGI [8] was 19 µM and the TGI [9] was 9.04 µM.

With `O=C(Nc1ccc(Cl)cc1Cl)c1c/c(=N\O)c2ccc(O)cc2o1` the TGI [1] was greater than 100 µM, the TGI [2] was greater than 100 µM and the TGI [3] was greater than 100 µM. The TGI [4] was greater than 100 µM, the TGI [5] was greater than 100 µM and the TGI [6] was greater than 100 µM. It also gave a TGI [7] greater than 100 µM, a TGI [8] greater than 100 µM and a TGI [9] greater than 100 µM.

`COC(=O)c1ccc2n[se]nc2c1` was tested, and the TGI [1] was greater than 100 µM, the TGI [2] was greater than 100 µM and the TGI [4] was greater than 100 µM. The TGI [5] was greater than 100 µM, the TGI [6] was greater than 100 µM and the TGI [8] was greater than 100 µM. The TGI [9] was greater than 100 µM.

`CC(C)(C)NC(=O)C12C3C4C1C1C2C3C41I` (stereo unspecified) showed a TGI [1] greater than 100 µM, a TGI [2] greater than 100 µM and a TGI [3] greater than 100 µM. It also gave a TGI [4] greater than 100 µM, a TGI [6] greater than 100 µM and a TGI [7] greater than 100 µM. It also gave a TGI [8] greater than 100 µM and a TGI [9] greater than 100 µM.

For `C[N+](C)(C)CC(=O)NC(=O)N/N=C\C(CC#N)CN(Cc1ccccc1)Cc1ccccc1` (stereo unspecified), the TGI [1] was greater than 100 µM, the TGI [2] was greater than 100 µM and the TGI [3] was greater than 100 µM. The TGI [4] was greater than 100 µM, the TGI [5] was greater than 100 µM and the TGI [6] was greater than 100 µM. The TGI [7] was greater than 100 µM and the TGI [8] was greater than 100 µM.

`O=c1c2ccccc2oc2nccnc12` was tested, and the TGI [1] was greater than 100 µM, the TGI [2] was greater than 100 µM and the TGI [3] was greater than 100 µM. The TGI [4] was greater than 100 µM, the TGI [5] was greater than 100 µM and the TGI [6] was greater than 100 µM. For the same molecule, the TGI [8] was greater than 100 µM and the TGI [9] was greater than 100 µM.

Work on `NNC(=S)N/N=C(\c1nc2ccc(Cl)cc2[nH]c1=O)C(O)c1ccc(Cl)cc1Cl` (stereo unspecified) yielded a TGI [1] greater than 100 µM, a TGI [2] greater than 100 µM and a TGI [3] greater than 100 µM. The TGI [4] was greater than 100 µM, the TGI [5] was greater than 100 µM and the TGI [6] was greater than 100 µM. The TGI [7] was greater than 100 µM, the TGI [8] was greater than 100 µM and the TGI [9] was greater than 100 µM.

In the case of `Cn1c(=O)c(C2c3ccccc3Oc3c2c(=O)n(C)c2ccccc32)c(O)c2ccccc21` (stereo unspecified), the TGI [1] is reported as greater than 100 µM, the TGI [2] is reported as greater than 100 µM and the TGI [3] is reported as greater than 100 µM. For the same molecule, the TGI [4] was greater than 100 µM, the TGI [5] was greater than 100 µM and the TGI [6] was greater than 100 µM. For the same molecule, the TGI [7] was greater than 100 µM, the TGI [8] was greater than 100 µM and the TGI [9] was greater than 100 µM.

Work on `O=C(N/C(=C\c1cc(Cl)ccc1Cl)c1nc2ccccc2[nH]1)c1ccccc1` yielded a TGI [1] greater than 100 µM, a TGI [2] of 29.8 µM and a TGI [4] of 62.7 µM. It also gave a TGI [5] greater than 100 µM.

In the case of `COc1ccc(-c2cc(-c3ccco3)c(C#N)c(=O)n2C2OC(OC(=O)c3ccccc3)C(OC(=O)c3ccccc3)C2OC(=O)c2ccccc2)cc1` (stereo unspecified), the TGI [1] is reported as greater than 100 µM, the TGI [2] is reported as greater than 100 µM and the TGI [3] is reported as greater than 100 µM. The TGI [4] was greater than 100 µM, the TGI [5] was greater than 100 µM and the TGI [6] was greater than 100 µM. The TGI [7] was greater than 100 µM, the TGI [8] was greater than 100 µM and the TGI [9] was greater than 100 µM.

`Cc1cccc2c1NC(c1c(C)[nH]c3ccccc13)C2` (stereo unspecified) was tested, and the TGI [1] was greater than 100 µM, the TGI [2] was greater than 100 µM and the TGI [3] was greater than 100 µM. It also gave a TGI [4] greater than 100 µM, a TGI [5] greater than 100 µM and a TGI [6] greater than 100 µM. For the same molecule, the TGI [7] was greater than 100 µM, the TGI [8] was greater than 100 µM and the TGI [9] was greater than 100 µM.

Work on `Nc1ccc(Cl)cc1.Nc1ccc(Cl)cc1.Nc1ccc(Cl)cc1.O=C([O-])C(=O)[O-].O=C([O-])C(=O)[O-].[H+].[Ru+5]` yielded a TGI [1] greater than 100 µM, a TGI [2] greater than 100 µM and a GI50 [3] of 0.0362 µM. It also gave a TGI [3] of 0.169 µM, a GI50 [4] of 0.927 µM and a TGI [4] greater than 26.8 µM. For the same molecule, the GI50 [5] was 0.0696 µM, the TGI [5] was greater than 25.4 µM and the GI50 [6] was greater than 100 µM. It also gave a TGI [6] greater than 100 µM, a GI50 [7] of 99.4 µM and a TGI [7] greater than 100 µM. The TGI [8] was greater than 100 µM, the GI50 [9] was 0.147 µM and the TGI [9] was greater than 100 µM.

`Cc1cc(C)c(-c2noc(-c3ccc(Cl)cc3)c2C2=NCCN2)c(C)c1` gave a TGI [1] of 37.7 µM, a TGI [2] of 34.2 µM and a TGI [3] of 35.2 µM. The TGI [4] was 46.9 µM, the TGI [5] was greater than 100 µM and the TGI [6] was 42.9 µM. For the same molecule, the TGI [7] was 68.3 µM, the TGI [8] was 64.5 µM and the TGI [9] was 50.6 µM.

`O=C1/C=C(/c2ccc(O)cc2)[C@H](O)Cc2ccc(OC3OC(CO)C(O)C(O)C3O)cc2O1` (stereo partly specified) (tested in a mixture with another compound) showed a TGI [1] greater than 100 µM, a TGI [2] greater than 100 µM and a TGI [3] greater than 100 µM. For the same molecule, the TGI [4] was greater than 100 µM, the TGI [5] was greater than 100 µM and the TGI [6] was greater than 100 µM. For the same molecule, the TGI [7] was greater than 100 µM, the TGI [8] was greater than 100 µM and the TGI [9] was greater than 100 µM.

`COc1ncn(C2C=C(CO)C(O)C2O)c(=O)n1` (stereo unspecified) was tested, and the TGI [1] was greater than 100 µM, the TGI [3] was greater than 100 µM and the TGI [4] was greater than 100 µM. The TGI [5] was greater than 100 µM, the TGI [7] was greater than 100 µM and the TGI [8] was greater than 100 µM. The TGI [9] was greater than 100 µM.

`O=C(O)C(=O)/C=C\c1ccc(Cl)cc1` was tested, and the TGI [1] was greater than 100 µM, the TGI [2] was greater than 100 µM and the TGI [3] was greater than 100 µM. For the same molecule, the TGI [4] was greater than 100 µM, the TGI [5] was greater than 100 µM and the TGI [6] was greater than 100 µM. It also gave a TGI [7] greater than 100 µM, a TGI [8] greater than 100 µM and a TGI [9] greater than 100 µM.

`O=C(/C=C/c1ccccc1O)CC(=O)/C=C/c1ccccc1O` was tested, and the TGI [1] was 17.5 µM, the TGI [4] was 12.6 µM and the TGI [5] was 25.9 µM. For the same molecule, the TGI [6] was 6.45 µM, the TGI [8] was 7.42 µM and the TGI [9] was 15.5 µM.

Source: PubChem BioAssay (NCI)
